This passage reports IC50, melting point and HNE inhibitory activity results from paper PMC5718994, “Synthesis and analytical characterization of new thiazol-2-(3H)-ones as human neutrophil elastase (HNE) inhibitors” (Chemistry Central Journal, 2017).

One data set relates to HNE.
Test: not given
Particulars: HNE inhibitor, Fig. 1; cited from earlier work.
Turning to `Cc1c(-c2ccnn2C)cc(C(=O)NCc2ccc(S(C)(=O)=O)cn2)c(=O)n1-c1cccc(C(F)(F)F)c1` [Alvelestat], the IC50 was 12 nM.

Tested on in another data set: not given
Test: not given
Conditions: not given
`O=C(Cn1c(-c2ccccc2)csc1=O)Nc1ccccc1` [Compound 2a, 2-(2-Oxo-4-phenylthiazol-3(2H)-yl)-N-phenylacetamide] yielded a melting point of 177 to 179 °C.
`O=C(Cn1c(-c2ccccc2)csc1=O)Nc1c(Cl)cccc1Cl` [Compound 2b, N-(2,6-dichlorophenyl)-2-(2-oxo-4-phenylthiazol-3(2H)-yl)acetamide] gave a melting point of 213 to 216 °C.
`CC(=O)c1sc(=O)n(CC(=O)Nc2ccccc2)c1C` [Compound 2c, 2-(5-Acetyl-4-methyl-2-oxothiazol-3(2H)-yl)-N-phenylacetamide]: the melting point is 188 to 190 °C.
Same read-out and setting: the result for `CC(=O)c1sc(=O)n(CC(=O)Nc2c(Cl)cccc2Cl)c1C` [Compound 2d, 2-(5-Acetyl-4-methyl-2-oxothiazol-3(2H)-yl)-N-(2,6-dichlorophenyl)acetamide] reads 209 to 211 °C.
On the same count and under the same terms, the result for `Cc1csc(=O)n1CC(=O)Nc1ccccc1` [Compound 2e, 2-(4-Methyl-2-oxothiazol-3(2H)-yl)-N-phenylacetamide] reads 188 to 191 °C; that for `Cc1csc(=O)n1CC(=O)Nc1c(Cl)cccc1Cl` [Compound 2f, N-(2,6-dichlorophenyl)-2-(4-methyl-2-oxothiazol-3(2H)-yl)acetamide], 266 to 269 °C.
Still for that read-out and setting: the result for `Cc1cccc(-n2c(-c3ccccc3)csc2=O)c1` [Compound 3a, 4-Phenyl-3-m-tolyl-thiazol-2(3H)-one] reads 118 to 121 °C; that for `O=c1scc(-c2ccccc2)n1-c1cccc(C(F)(F)F)c1` [Compound 3b, 4-Phenyl-3-[3-(trifluoromethyl)phenyl]thiazol-2(3H)-one], 84 to 87 °C; that for `CC(=O)c1sc(=O)n(-c2cccc(C)c2)c1C` [Compound 3c, 5-Acetyl-4-methyl-3-m-tolylthiazol-2(3H)-one], 104 to 106 °C.
Consider `CC(=O)c1sc(=O)n(-c2cccc(C(F)(F)F)c2)c1C` [Compound 3d, 5-Acetyl-4-methyl-3-[3-(trifluoromethyl)phenyl]thiazol-2(3H)-one], for which the melting point was 147 to 150 °C.
Same read-out and setting: the result for `Cc1cccc(-n2c(C)csc2=O)c1` [Compound 3e, 4-Methyl-3-m-tolyl-thiazol-2(3H)-one] reads 69 to 72 °C; that for `CC(=O)c1sc(=O)n(COC(=O)c2ccccc2)c1C` [Compound 5b, (5-Acetyl-4-methyl-2-oxothiazol-3(2H)-yl)methyl benzoate], 121 to 123 °C.

The target in another data set is T1, HNE (Calbiochem) (Homo sapiens, UniProt P08246).
T1 construct: purchased Calbiochem
T1 sequence (P08246 30-267): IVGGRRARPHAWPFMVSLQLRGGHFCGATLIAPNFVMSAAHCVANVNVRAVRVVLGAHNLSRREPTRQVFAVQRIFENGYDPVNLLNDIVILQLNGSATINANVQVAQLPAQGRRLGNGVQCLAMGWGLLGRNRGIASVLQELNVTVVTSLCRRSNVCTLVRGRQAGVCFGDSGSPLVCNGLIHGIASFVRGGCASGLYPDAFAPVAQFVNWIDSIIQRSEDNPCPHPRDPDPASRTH
Put plainly: HNE inhibition assay. In kind it is biochemical. The following applies: highest concentration tested 40 µM. On the procedure:
Compounds were dissolved in 100% DMSO at 5 mM stock concentrations. The final concentration of DMSO in the reactions was 1%, and this level of DMSO had no effect on enzyme activity. The HNE inhibition assay was performed in black flat-bottom 96-well microtiter plates. Briefly, a buffer solution containing 200 mM Tris–HCl, pH 7.5, 0.01% bovine serum albumin, and 0.05% Tween-20 and 20 mU/mL of HNE (Calbiochem) was added to wells containing different concentrations of each compound. The reaction was initiated by addition of 25 μM elastase substrate (N-methylsuccinyl-Ala–Ala-Pro-Val-7-amino-methyl-coumarin, Calbiochem) in a final reaction volume of 100 μL/well. Kinetic measurements were obtained every 30 s for 10 min at 25 °C using a Fluoroskan Ascent FL fluorescence microplate reader (Thermo Electron, MA) with excitation and emission wavelengths at 355 and 460 nm, respectively.
For the compound `O=C(OCn1c(-c2ccccc2)csc1=O)c1ccccc1` [Compound 5a, (2-Oxo-4-phenylthiazol-3(2H)-yl)methyl benzoate], the HNE inhibitory activity entry is on record as “inactivity”.
Still for that read-out and setting: the result for `CC(=O)c1sc(=O)n(COC(=O)c2ccccc2)c1C` [Compound 5b, (5-Acetyl-4-methyl-2-oxothiazol-3(2H)-yl)methyl benzoate] reads “inactivity”.
Still for that read-out and setting: the result for `Cc1cccc(Cn2c(-c3ccccc3)csc2=O)c1` [Compound 5c, 3-(3-Methylbenzyl)-4-phenylthiazol-2(3H)-one] reads “inactive”.
On the same count and under the same terms, the result for `O=C(OCOc1nc(-c2ccccc2)cs1)c1ccccc1` [Compound 6a, (4-Phenylthiazol-2-yloxy)methyl benzoate] reads “inactivity”.
Turning to `CC(=O)c1sc(OCOC(=O)c2ccccc2)nc1C` [Compound 6b, (5-Acetyl-4-methylthiazol-2-yloxy)methyl benzoate], the HNE inhibitory activity entry was “inactivity”.
Same read-out and setting: the result for `Cc1cccc(COc2nc(-c3ccccc3)cs2)c1` [Compound 6c, 2-(3-Methylbenzyloxy)-4-phenylthiazole] reads “inactive”.
